1 molecule from patent US11865126B2, “Method for treating anxiety disorders, headache disorders, and eating disorders with psilocybin” (priority 2019, dated 2024) can be followed below.

Data set [1] is described as follows: Binge eating model: body weight. The conditions noted are these: 1, 3 and 10 mg/kg IP.
The next data set deals with healthy subjects. Kind of data set: Social Value Orientation (SVO). Type of data set: in vivo, human. From the text: In some embodiments, the Social Value Orientation (SVO) test is utilized to evaluate the safety and/or efficacy of psilocybin. The SVO Slider Measure has 6 primary items with 9 secondary (and optional) items. All of the items have the same general form. Each item is a resource allocation choice over a well-defined continuum of joint payoffs.
The following list of outcome measures are non-exhaustive. • a. The short-term change from Baseline (Day −1 [Visit 2]) to Day 7 (Visit 5) in cognitive measures of attention, spatial and working memory and executive function was measured by a composite score of the CANTAB Panel (Spatial Working Memory [SWM], Rapid Visual Information Processing [RVP], Paired Associates Learning [PAL]). • b. The short-term change from Baseline (Day −1 [Visit 2]) to Day 7 (Visit 5) in Social Cognition Panel scales (Pictorial Empathy Test [PET], Reading the Mind in the Eyes Test [RMET], Toronto Empathy Questionnaire [TEQ], Social Value Orientation [SVO], Scale of Social Responsibility [SSR]). • c. The change from Baseline (Day −1 [Visit 2]) to Day 28 (Visit 6) in cognitive measures of attention, spatial and working memory and executive function as measured by a composite score of the CANTAB Panel (SWM, RVP, PAL). • d. The long-term change from Baseline (Day −1 [Visit 2]) to Day 84 (Visit 7) in Social Cognition Panel scales (PET, RMET, TEQ, SVO, SSR). • e. Dose-related differences between cognitive effects of psilocybin at Baseline (Day −1 [Visit 2]), Day 7 (Visit 5) and Day 28 (Visit 6), as measured by a composite score of the CANTAB Panel (SWM, RVP, PAL). • f. Dose-related differences between psychological effects of psilocybin at Baseline (Day −1 [Visit 2]), Day 7 (Visit 5) and Day 84 (Visit 7), as measured by Social Cognition Panel scales (PET, RMET, TEQ, SVO, SSR). • g. Differences in cognitive effects of psilocybin between psilocybin-naïve and experienced subjects at Baseline (Day −1 [Visit 2]), Day 7 (Visit 5) and Day 28 (Visit 6), as measured by a composite score of the CANTAB Panel (SWM, RVP, PAL). • h. Differences in Positive and Negative Affect Schedule (PANAS) after study drug administration on Day 0 (Visit 3). • i. Differences between psilocybin and placebo in the Emotion Recognition Test (ERT), Intra-Extra Dimensional Set Shift (IED), One Touch Stockings (OTS), Verbal Fluency and Digit Span Forward at Day 7 (Visit 5). • j. A composite score of the CANTAB Panel, including the following tests: • i. Spatial Working Memory (SWM) (performed at Visit 2, Visit 5, and Visit 6). • ii. Rapid Visual Information Processing (RVP) (performed at Visit 2, Visit 5, and Visit 6). • iii. Paired Associates Learning (PAL) (performed at Visit 2, Visit 5, and Visit 6). • k. Cognitive Flexibility Panel • i. Emotion Recognition Task (ERT) (performed at Visit 5). • ii. Intra-Extra Dimensional Set Shift (IED) (performed at Visit 5). • iii. One Touch Stockings (OTS) (performed at Visit 5). • iv. Verbal Fluency (performed at Visit 5). • v. Digit Span Forward (performed at Visit 5). • l. Five Dimension Altered States of Consciousness questionnaire (5D-ASC) (performed at Visit 3). • m. PANAS (performed at Visit 2 and Visit 3). • n. NEO-Five Factor Inventory (NEO-FFI) (performed at Visit 2, Visit 5, and Visit 7). • o. Symptom Checklist-90 item (SCL-90) (performed at Visit 2, Visit 5, and Visit 7). • p. Life Changes Inventory (LCI): The LCI measures changes in attitudes and values after near-death experiences often used to evaluate personal transformation following spiritually oriented experiences and practices. (performed at Visit 5 and Visit 7). • q. Social Cognition Panel scales • i. Pictorial Empathy Test (PET) (performed at Visit 2, Visit 5, and Visit 7). • ii. Reading the Mind in the Eyes Test (RMET) (performed at Visit 2, Visit 5, and Visit 7). • iii. Social Value Orientation (SVO) (performed at Visit 2, Visit 5, and Visit 7). • iv. Toronto Empathy Questionnaire (TEQ) (performed at Visit 2, Visit 5, and Visit 7). • v. […]

Data set [2] deals with subjects with chronic cluster headaches (CCH). Kind of data set: Chronic cluster headaches study (headache logs). Type of data set: in vivo, human. The note with it: 0.14 mg/kg perorally x3; same subject. From the text:
The study took place over a 10 week period which consisted of a baseline observation period, 3 psilocybin sessions, and a follow-up period in subjects with CCH (FIG. 27). Throughout the course of the study, subjects completed questionnaires and headache logs in order to access headache frequency, duration, and severity.
Before the beginning of the study, subjects taking prophylactic medication underwent a 2 week wash-out period to eliminate medication. Subjects then began a baseline observation period lasting 4 weeks during which the subjects received a functional MRI (magnetic resonance imaging) scan. After the observation period, subjects were perorally administered their first dose of 0.14 mg/kg psilocybin. Blood samples were collected during the initial dosing session to establish psilocin plasma concentrations. Over the next two weeks, subjects were administered two additional doses of psilocybin with each dose administered one week apart. The last psilocybin dose was followed by 4 weeks of observation that included a functional MRI scan one week after the last psilocybin dose. Subjects were also contacted 6 and 12 months after the last psilocybin dose to gain information about the duration of potential remission periods. All regular acute treatments were permitted during the study period and recorded in the headache diary. […]

In the case of `CN(C)CCc1c[nH]c2cccc(OP(=O)(O)O)c12` [psilocybin], the Overall body weight result in data set [1] was “not affected”. In the data set on healthy subjects (Day 7, MMRM), the “SVO angle change from baseline, LS mean difference Psilocybin 10 mg - Placebo” value was 3.4; the “SVO angle change from baseline, LS mean difference Psilocybin 25 mg - Placebo” value stood at 2.1; the “SVO angle change from baseline, LS mean difference Psilocybin 25 mg-10 mg” value is reported as −1.3; the “SVO type change from baseline, LS mean difference Psilocybin 10 mg - Placebo” value was found to be 0.1. Moreover, in the data set with healthy subjects (Day 7, MMRM), the “SVO type change from baseline, LS mean difference Psilocybin 25 mg - Placebo” value is 0.1 and the “SVO type change from baseline, LS mean difference Psilocybin 25 mg-10 mg” value is on record as −0.0. For the same molecule, in the data set on healthy subjects (Day 84, MMRM), the “SVO angle change from baseline, LS mean difference Psilocybin 10 mg - Placebo” value came to 3.4; the “SVO angle change from baseline, LS mean difference Psilocybin 25 mg - Placebo” value is listed as 2.4; the “SVO angle change from baseline, LS mean difference Psilocybin 25 mg-10 mg” value is −1.0; the “SVO type change from baseline, LS mean difference Psilocybin 10 mg - Placebo” value is 0.1. In the data set on healthy subjects (Day 84, MMRM), the “SVO type change from baseline, LS mean difference Psilocybin 25 mg - Placebo” value worked out at 0.1 and the “SVO type change from baseline, LS mean difference Psilocybin 25 mg-10 mg” value is −0.0. In addition, the “Cluster headache with pain greater than normal” value in data set [2] is “at least one very painful cluster headache”.
